Laboratory results published in US20180207228A1, “PEPTIDE COMBINATIONS AND USES THEREOF FOR TREATING GRASS ALLERGY” (ALK-Abelló A/S, priority 2015, published 2018).
Where no end group is shown, it is not given here.

What was measured:
Type in all cases: cell-based, human
[1] = test system: release of IL-5 upon T cell activation; test: Fluorospot assay, IL-5 release (DK1-TCL01, US1-TCL01); conditions: head prints TCL-02 DK1; text: 25 TCL-01 DK1 lines
How it was run: (§1)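 A peptide counted as a hit at ≥20 SFC/10^6 cells, stimulation index ≥2 over medium, and p and Poisson ≤0.05. Cells came from TCL01 lines, raised from allergic donors' CD8-depleted PBMCs over 14 days of natural-allergen stimulation with IL-2. They were exposed to 2 μg/ml peptide or peptide mix for 20 h at 37° C.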

[2] = test system: release of IFN-γ upon T cell activation; test: Fluorospot assay, IFN-γ release (DK1-TCL01, US1-TCL01); conditions: head prints TCL-02 DK1; 17 TCL-01 DK1 lines
How it was run: as §1

[3] = test system: allergen specific T cells; test: T cell proliferation assay (72 h) on donor derived T cell lines (TCL02/TCL03); conditions: for Proliferation % donor coverage (TCL-02 DK1): T cell lines TCL-02 DK1, 30 donors, hit criteria SI>=2, CPM>=1000; for Proliferation strength (TCL-02 DK1): T cell lines TCL-02 DK1, strength of response (average relative magnitude)
How it was run: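 Overlapping 20-mer and selected 15-mer grass allergen peptides were screened for proliferation using TCL02 (day 24) or TCL03 (day 34) lines. Lines came from grass-allergic donors' CD8-depleted PBMCs, primed with natural allergen mix and expanded with irradiated autologous or allogeneic APCs, PHA-P 0.5 μg/ml and rIL-2.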

Row | Substance | IL-5-Fluorospotr % donor coverage (TCL-02 DK1) [1] [%] | IFN-gamma % donor coverage (TCL-02 DK1) [2] [%] | Proliferation % donor coverage (TCL-02 DK1) [3] [%] | Proliferation strength (TCL-02 DK1) [3]
1 | GSNEKHLAVLVKYEGDTMAE-OH [compound 31] | 0.00 | 0.00 | 10.00 | 1.40
2 | HGSEEWEPLTKKGNVWEVKS-OH [compound 37] | 4.00 | 0.00 | 26.67 | 3.20
3 | IKYTRPGDSLAEVELRQHGS-OH [compound 42] | 0.00 | 0.00 | 16.67 | 0.80
4 | IPKVPPGPNITATYGDKWLD-OH [compound 14] | 0.00 | 0.00 | 3.33 | 0.40
5 | ITATYGDKWLDAKSTWYGKP-OH [compound 16] | 0.00 | 4.00 | 10.00 | 0.70
6 | KDKWIELKESWGAIWRIDTP-OH [compound 10] | 24.00 | 4.00 | 60.00 | 9.80
7 | KEDFLGSLVKEIPPRLLYAK-OH [compound 45] | 4.00 | 0.00 | 20.00 | 4.00
8 | KPAAAATATATSAVGAATGA-OH [compound 87] | 0.00 | 0.00 | 10.00 | 0.70
9 | KPPFSGMTGSGNTPI-OH [compound 122] | 4.17 | 0.00 | 10.34 | 0.60
10 | KPPFSGMTGSGNTPIFKSGR-OH [compound 19] | 0.00 | 0.00 | 16.67 | 1.10
11 | KPTGAGPKDNGGASGYKDVD-OH [compound 17] | 8.00 | 4.00 | 23.33 | 2.80
12 | KSSKPLVGPFNFRFMSKGGM-OH [compound 39] | 12.00 | 4.00 | 13.33 | 1.10
13 | KVPPGPNITATYGDKWLDAK-OH [compound 15] | 0.00 | 0.00 | 3.33 | 0.50
14 | LSYRSLQPETFAVVDLNKMR-OH [compound 53] | 0.00 | 4.00 | 10.00 | 1.20
